The supplement of paper PMC10307832

Legend:
Assay in all cases: relative viability (nuclei count vs DMSO), 5 days (fraction); higher = more cells survive
Masitinib + Pemetrexed = compound: Cc1ccc(NC(=O)c2ccc(CN3CCN(C)CC3)cc2)cc1Nc1nc(-c2cccnc2)cs1 [Masitinib] + Nc1nc2[nH]cc(CCc3ccc(C(=O)N[C@@H](CCC(=O)O)C(=O)O)cc3)c2c(=O)[nH]1 [Pemetrexed] (partner 0.2 µM)
Method in brief: (§1)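 One day after seeding in 1536-well plates, lung cancer cell lines were dosed by pin tool. Dosing was either single-drug or a fixed anchor-drug dose plus five library-drug doses (not always all listed) in √10 steps. After 5 days, nuclei were stained in one fix-and-stain step and counted on 4× images, and relative viability is the nuclei count of treated wells over that of vehicle wells, given as the median of duplicate plates.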

[1] = compound: CC1=CC(=CC=C1)NC2=NC(=CS2)C3=CC=NC=C3 + CC(=O)c1c(C)c2cnc(Nc3ccc(N4CCNCC4)cn3)nc2n(C2CCCC2)c1=O [Palbociclib] (partner 0.5 µM)
Method in brief: as §1

[2] = compound: CC1=CC(=CC=C1)NC2=NC(=CS2)C3=CC=NC=C3 + Cc1nc(NC(=O)N2CCC[C@H]2C(N)=O)sc1-c1ccnc(C(C)(C)C(F)(F)F)c1 [Alpelisib] (partner 2 µM)
Method in brief: as §1

Masitinib + Pictilisib = compound: Cc1ccc(NC(=O)c2ccc(CN3CCN(C)CC3)cc2)cc1Nc1nc(-c2cccnc2)cs1 [Masitinib] + CS(=O)(=O)N1CCN(Cc2cc3nc(-c4cccc5[nH]ncc45)nc(N4CCOCC4)c3s2)CC1 [Pictilisib] (partner 1 µM)
Method in brief: as §1

Cell Line	relative viability (Masitinib + Pemetrexed; first compound 0.01 µM)	relative viability (Masitinib + Pemetrexed; first compound 0.03162 µM)	relative viability (Masitinib + Pemetrexed; first compound 0.1 µM)	relative viability (Masitinib + Pemetrexed; first compound 0.3162 µM)	relative viability (Masitinib + Pemetrexed; first compound 1 µM)	relative viability ([1]; first compound 0.08 µM)	relative viability ([1]; first compound 0.253 µM)	relative viability ([1]; first compound 0.8 µM)	relative viability ([1]; first compound 2.53 µM)	relative viability ([1]; first compound 8 µM)	relative viability ([2]; first compound 0.253 µM)	relative viability ([2]; first compound 0.8 µM)	relative viability ([2]; first compound 2.53 µM)	relative viability ([2]; first compound 8 µM)	relative viability (Masitinib + Pictilisib; first compound 0.01 µM)	relative viability (Masitinib + Pictilisib; first compound 0.03162 µM)	relative viability (Masitinib + Pictilisib; first compound 0.1 µM)	relative viability (Masitinib + Pictilisib; first compound 0.3162 µM)	relative viability (Masitinib + Pictilisib; first compound 1 µM)	relative viability ([2]; first compound 0.08 µM)
NCI-H2342	0.741	0.72	0.831	0.746	0.781	0.455	0.491	0.557	0.503	0.497	–	–	–	–	–	–	–	–	–	–
NCI-H1793	0.992	0.737	1	0.835	0.742	0.269	0.305	0.297	0.261	0.336	0.625	0.704	0.69	0.79	0.455	0.318	0.427	0.381	0.338	–
LU99A	0.158	0.21	0.16	0.181	0.219	0.387	0.384	0.42	0.39	0.468	0.49	0.433	0.428	0.443	0.324	0.332	0.346	0.349	0.279	–
HCC-366	–	0.174	0.148	0.137	0.146	0.372	0.343	0.274	0.275	0.257	0.215	0.275	0.317	0.209	0.119	0.0994	0.131	0.115	0.138	0.306
201T	0.309	0.343	0.319	0.347	0.345	0.401	0.319	0.359	0.348	0.336	1.05	1.04	0.96	0.853	0.642	0.623	0.646	0.556	0.639	1
HCC-827	0.264	0.278	0.255	0.185	0.257	0.495	0.435	0.431	0.518	0.37	0.913	0.907	1.03	0.836	0.998	0.918	0.977	0.921	0.942	0.946
NCI-H650	0.857	0.832	1.04	1.01	0.99	0.256	0.339	0.322	0.342	0.371	1.14	1.16	–	1.11	0.921	0.909	1.09	0.864	0.929	0.929
NCI-H2085	0.976	0.936	1.01	0.992	0.844	0.464	0.463	0.475	0.47	0.349	1.02	0.946	0.833	0.705	0.522	0.455	0.469	0.396	0.595	0.887
NCI-H596	0.553	0.536	0.501	0.463	0.472	–	–	–	–	–	0.402	0.35	0.412	0.401	0.214	0.345	0.438	0.385	0.35	0.421
SK-LU-1	0.982	1	1.06	0.919	1.03	0.405	0.404	0.293	0.479	0.37	0.934	0.617	0.992	0.852	0.483	0.53	0.643	0.549	0.518	0.955
A-427	0.758	0.986	0.857	1.03	0.771	0.473	0.531	0.485	0.538	0.5	1.06	1.1	–	0.844	–	0.55	–	0.687	0.601	1.03
NCI-H460	0.0557	0.0629	0.0594	0.0647	0.0579	0.0801	0.0813	0.0708	0.0785	0.086	0.368	0.375	0.37	0.307	0.587	0.26	0.415	0.254	0.321	0.331
NCI-H1734	0.408	0.465	0.396	0.376	0.404	0.352	0.315	0.344	0.347	0.359	0.683	0.672	0.757	0.687	0.441	0.459	0.532	0.412	0.395	0.615
NCI-H1915	–	0.507	–	0.467	0.496	0.545	0.47	0.53	0.524	0.492	0.996	1.07	1.07	0.938	–	0.97	0.664	0.853	0.908	1.03
Calu-6	–	–	–	–	–	–	–	–	–	–	0.744	0.906	0.957	0.919	0.905	0.857	1.06	0.988	0.861	0.886
